Assay results reported in patent publication US20210346329A1, “TCA CYCLE INTERMEDIATES AND METHODS OF USE THEREOF” (IMBRIA PHARMACEUTICALS, INC., priority 2018, published 2021).

Assay: Percentage recovery of radioactive dose (expired CO2, urine, feces, cage rinse and wipe)
Settings: IV 10 mg/kg, Subject 1006
Experimental: The plasma-time course, routes and rates of excretion, and tissue distribution of radioactivity following a single oral dose of ^14C-labeled citrate or single oral dose of ^14C-labeled succinate were analyzed in rats.
Formulations were prepared on the day prior to dosing.
CD® rats were obtained from Charles River Laboratories. Animals were 9-11 weeks in age at beginning of study.
Animals given intravenous ^14C-succinate were not kept in a fasting state. ^14C-succinate was administered by tail vein injection.
Following oral dosing, the tube and dose site were wiped with gauze, which was collected for subsequent radioanalysis. Following IV dosing, the needle and dose site were wiped with gauze, which was collected for subsequent radioanalysis. The dose site wipe total radioactivity was subtracted from the total dose administered, to determine dose loss, according to SOP ADME.
Urine and feces were collected at 0-24 hours post-dose and stored on wet ice. Expired CO2 was collected at 0-8 hours and 8-24 hours post-dose by drawing air through traps containing 2 N NaOH according to MPI Research SOP. Samples were stored at ambient temperature and weighed. Aliquots were submitted for radioanalysis.
At 24 hours post-dose, cages were rinsed with a 1% trisodium phosphate (TSP) solution and wiped with gauze pads. The final cage rinse samples and cage wipe samples were collected into separate appropriate containers, and the weight of each cage rinse and cage wipe were recorded.
Samples were analyzed for radioactivity by liquid scintillation counting (LSC) for at least 5 minutes or 100,000 cumulative counts. Samples were analyzed in triplicate.

SMILES: O=C(O)CCC(=O)O [^14C-succinate]
- Percentage recovery of radioactive dose (Cage rinse, 0-24 hr): 0.1 % recovery
- Percentage recovery of radioactive dose (Cage wipe, 24 hr): 0.0 % recovery
- Percentage recovery of radioactive dose (Expired trap 1, 0-8 hr (line r8)): 54.8 % recovery
- Percentage recovery of radioactive dose (Expired trap 1, 0-8 hr (line r9)): 4.6 % recovery
- Percentage recovery of radioactive dose (Expired trap 1, 0-8 hr (line r10)): 0.4 % recovery
- Percentage recovery of radioactive dose (Expired trap 1, 0-8 hr (line r12)): 1.3 % recovery
- Percentage recovery of radioactive dose (Expired trap 1, 0-8 hr (line r13)): 0.7 % recovery
- Percentage recovery of radioactive dose (Expired trap 1, 0-8 hr (line r14)): 0.3 % recovery
- Percentage recovery of radioactive dose (Feces, 0-24 hr): 0.2 % recovery
- Percentage recovery of radioactive dose (Subtotal of expired traps (line r11)): 59.8 % recovery
- Percentage recovery of radioactive dose (Subtotal of expired traps (line r15)): 2.3 % recovery
- Percentage recovery of radioactive dose (Total): 65.265 % recovery
- Percentage recovery of radioactive dose (Urine, 0-24 hr): 2.9 % recovery
